Results taken from paper PMC5218480 (PLoS ONE, 2017).

Tested on: MV-4-11 cells
Assay: Gene expression microarray analysis (Affymetrix PrimeView) and GSEA
Assay type: cell-based, human
Parameters: RFU PODN (11730768_x_at) / Fold change /veh PODN (11730768_x_at) / RFU LINC00158 (11744669_a_at) / Fold change /veh LINC00158 (11744669_a_at) / RFU DUSP10 (11751237_a_at) / Fold change /veh DUSP10 (11751237_a_at) / RFU ID3 (11757404_x_at) / Fold change /veh ID3 (11757404_x_at) / RFU PLEKHG5 (11737974_s_at) / Fold change /veh PLEKHG5 (11737974_s_at) / RFU LRRC4B (11730491_at) / Fold change /veh LRRC4B (11730491_at) / RFU GIMAP4 (11747438_a_at) / Fold change /veh GIMAP4 (11747438_a_at) / RFU KRT8 (11758183_x_at) / Fold change /veh KRT8 (11758183_x_at) / RFU CNN1 (11734310_a_at) / Fold change /veh CNN1 (11734310_a_at) / RFU VPS37D (11726825_at) / Fold change /veh VPS37D (11726825_at) / RFU C10orf10 (11716522_x_at) / Fold change /veh C10orf10 (11716522_x_at) / RFU KIR2DL2 /// KIR2DL4 /// KIR2DL5A /// KIR2DL5B /// KIR2DS1 /// KIR2DS2 /// KIR2DS3 /// KIR2DS4 /// KIR3DL3 /// KIR3DL3 /// KIR3DS1 (11738374_at) / Fold change /veh KIR2DL2 /// KIR2DL4 /// KIR2DL5A /// KIR2DL5B /// KIR2DS1 /// KIR2DS2 /// KIR2DS3 /// KIR2DS4 /// KIR3DL3 /// KIR3DL3 /// KIR3DS1 (11738374_at) / RFU C1QL1 (11718748_at) / Fold change /veh C1QL1 (11718748_at) / RFU TMPRSS4 (11747572_a_at) / Fold change /veh TMPRSS4 (11747572_a_at) / RFU HAMP (11756126_x_at) / Fold change /veh HAMP (11756126_x_at) / RFU RNFT2 (11725882_a_at) / Fold change /veh RNFT2 (11725882_a_at) / RFU NR4A2 (11747474_a_at) / Fold change /veh NR4A2 (11747474_a_at) / RFU ABCC12 (11746883_a_at) / Fold change /veh ABCC12 (11746883_a_at) / RFU TMEM136 (11760407_x_at) / Fold change /veh TMEM136 (11760407_x_at) / RFU CLDN22 /// WWC2 (11732394_at) / Fold change /veh CLDN22 /// WWC2 (11732394_at) / RFU HLA-DPB1 (11760878_x_at) / Fold change /veh HLA-DPB1 (11760878_x_at) / RFU SPINT1 (11716480_a_at) / Fold change /veh SPINT1 (11716480_a_at) / RFU GAP43 (11754022_s_at) / Fold change /veh GAP43 (11754022_s_at) / RFU A4GNT (11735810_at) / Fold change /veh A4GNT (11735810_at) / RFU PRB3 (11715151_x_at) / Fold change /veh PRB3 (11715151_x_at) / RFU TUBB4B (11761932_at) / Fold change /veh TUBB4B (11761932_at) / RFU CAPN14 (11732068_a_at) / Fold change /veh CAPN14 (11732068_a_at) / RFU TMCC2 (11721928_a_at) / Fold change /veh TMCC2 (11721928_a_at) / RFU IRGQ (11745062_a_at) / Fold change /veh IRGQ (11745062_a_at) / RFU FAM174B (11720279_a_at) / Fold change /veh FAM174B (11720279_a_at) / RFU TMPRSS4 (11748680_a_at) / Fold change /veh TMPRSS4 (11748680_a_at) / RFU FAM212B (11763350_a_at) / Fold change /veh FAM212B (11763350_a_at) / RFU PLEKHG5 (11743358_a_at) / Fold change /veh PLEKHG5 (11743358_a_at) / RFU ZSCAN30 (11745921_a_at) / Fold change /veh ZSCAN30 (11745921_a_at) / RFU CMKLR1 (11741424_a_at) / Fold change /veh CMKLR1 (11741424_a_at) / RFU LOC101060620 /// MAPK8IP1 (11723275_at) / Fold change /veh LOC101060620 /// MAPK8IP1 (11723275_at) / RFU SPTSSB (11747773_x_at) / Fold change /veh SPTSSB (11747773_x_at) / RFU PRSS12 (11739890_at) / Fold change /veh PRSS12 (11739890_at) / RFU BIN1 (11741810_x_at) / Fold change /veh BIN1 (11741810_x_at) / RFU WNT11 (11732464_a_at) / Fold change /veh WNT11 (11732464_a_at) / RFU C10orf10 (11716521_a_at) / Fold change /veh C10orf10 (11716521_a_at) / RFU C5orf56 (11738089_at) / Fold change /veh C5orf56 (11738089_at) / RFU CYB561 (11721691_x_at) / Fold change /veh CYB561 (11721691_x_at) / RFU ANKRD19P (11752326_a_at) / Fold change /veh ANKRD19P (11752326_a_at) / RFU OR2T12 /// OR2T33 /// OR2T8 (11738714_s_at) / Fold change /veh OR2T12 /// OR2T33 /// OR2T8 (11738714_s_at) / RFU VCAN (11748164_a_at) / Fold change /veh VCAN (11748164_a_at) / RFU JSRP1 (11732532_at) / Fold change /veh JSRP1 (11732532_at) / RFU KRTAP10-11 (11738290_x_at) / Fold change /veh KRTAP10-11 (11738290_x_at) / RFU MYO3A (11730013_a_at) / Fold change /veh MYO3A (11730013_a_at) / RFU EBF3 (11725865_a_at) / Fold change /veh EBF3 (11725865_a_at) / RFU CAMK2N1 (11719241_x_at) / Fold change /veh CAMK2N1 (11719241_x_at) / RFU C5orf56 (11738088_a_at) / Fold change /veh C5orf56 (11738088_a_at) / RFU OLFML3 (11715873_a_at) / Fold change /veh OLFML3 (11715873_a_at) / RFU LOC100653217 /// NTM (11731650_a_at) / Fold change /veh LOC100653217 /// NTM (11731650_a_at) / RFU MAPK11 (11762145_a_at) / Fold change /veh MAPK11 (11762145_a_at) / RFU FIZ1 (11724087_x_at) / Fold change /veh FIZ1 (11724087_x_at) / RFU OASL (11726364_x_at) / Fold change /veh OASL (11726364_x_at) / RFU SOX15 (11748057_x_at) / Fold change /veh SOX15 (11748057_x_at) / RFU CD79A (11719716_a_at) / Fold change /veh CD79A (11719716_a_at) / RFU HIST1H1D (11736915_at) / Fold change /veh HIST1H1D (11736915_at) / RFU CASKIN2 (11723855_a_at) / Fold change /veh CASKIN2 (11723855_a_at) / RFU LOC730098 (11760151_x_at) / Fold change /veh LOC730098 (11760151_x_at) / RFU OR4N2 (11742367_at) / Fold change /veh OR4N2 (11742367_at) / RFU PRRT2 (11749266_a_at) / Fold change /veh PRRT2 (11749266_a_at) / RFU SNX32 (11753110_a_at) / Fold change /veh SNX32 (11753110_a_at) / RFU CDHR5 (11726645_a_at) / Fold change /veh CDHR5 (11726645_a_at) / RFU RCAN1 (11760418_a_at) / Fold change /veh RCAN1 (11760418_a_at) / RFU FAM167A (11723789_a_at) / Fold change /veh FAM167A (11723789_a_at) / RFU FAM26E (11764081_at) / Fold change /veh FAM26E (11764081_at) / RFU ISYNA1 (11749810_s_at) / Fold change /veh ISYNA1 (11749810_s_at) / RFU ACY1 (11761880_at) / Fold change /veh ACY1 (11761880_at) / RFU 11764098_at / Fold change /veh 11764098_at / RFU SAMD14 (11745864_x_at) / Fold change /veh SAMD14 (11745864_x_at) / RFU NPB (11741838_a_at) / Fold change /veh NPB (11741838_a_at) / RFU TMPRSS6 (11731388_a_at) / Fold change /veh TMPRSS6 (11731388_a_at) / RFU KRTAP10-2 (11738614_at) / Fold change /veh KRTAP10-2 (11738614_at) / RFU ARHGAP8 /// PRR5-ARHGAP8 (11727945_x_at) / Fold change /veh ARHGAP8 /// PRR5-ARHGAP8 (11727945_x_at) / RFU KRTAP5-7 /// NADSYN1 (11734609_at) / Fold change /veh KRTAP5-7 /// NADSYN1 (11734609_at) / RFU RASL12 (11751679_a_at) / Fold change /veh RASL12 (11751679_a_at) / RFU CDKN2B (11736163_a_at) / Fold change /veh CDKN2B (11736163_a_at) / RFU PRF1 (11729649_at) / Fold change /veh PRF1 (11729649_at) / RFU, ZNF638 /// ZNF638-IT1 / Fold change vs veh, ZNF638 /// ZNF638-IT1 / RFU, PANK3 / Fold change vs veh, PANK3 / RFU, SH3YL1 / Fold change vs veh, SH3YL1 / RFU, ZEB2 / Fold change vs veh, ZEB2 / RFU, NRIP1 / Fold change vs veh, NRIP1 / RFU, PTTG1IP / Fold change vs veh, PTTG1IP / RFU, CAPN2 / Fold change vs veh, CAPN2 / RFU, MED14 / Fold change vs veh, MED14 / RFU, SNORA58 / Fold change vs veh, SNORA58 / RFU, C1orf63 / Fold change vs veh, C1orf63 / RFU, LRRFIP1 / Fold change vs veh, LRRFIP1 / RFU, NDUFAF7 / Fold change vs veh, NDUFAF7 / RFU, SLC12A2 / Fold change vs veh, SLC12A2 / RFU, IBTK / Fold change vs veh, IBTK / RFU, ESF1 / Fold change vs veh, ESF1 / Fold change vs veh, TMEM50B / RFU, TAOK1 / Fold change vs veh, TAOK1 / RFU, ACBD3 / Fold change vs veh, ACBD3 / RFU, TMA16 / Fold change vs veh, TMA16 / RFU, RWDD3 / Fold change vs veh, RWDD3 / RFU, BCAT1 / Fold change vs veh, BCAT1 / RFU, EDEM3 / Fold change vs veh, EDEM3 / RFU, TMEM33 / Fold change vs veh, TMEM33 / RFU, WDR75 / Fold change vs veh, WDR75 / RFU, AHCTF1 / Fold change vs veh, AHCTF1 / RFU, TFRC / Fold change vs veh, TFRC / RFU, ZDHHC17 / Fold change vs veh, ZDHHC17 / RFU, NOM1 / Fold change vs veh, NOM1 / RFU, ARL8B / Fold change vs veh, ARL8B / RFU, ZBTB11 / Fold change vs veh, ZBTB11 / RFU, TAMM41 / Fold change vs veh, TAMM41 / RFU, KIAA1704 /// LOC100996395 / Fold change vs veh, KIAA1704 /// LOC100996395 / RFU, ING1 / Fold change vs veh, ING1 / RFU, TRMT61B / Fold change vs veh, TRMT61B / RFU, FUBP3 / Fold change vs veh, FUBP3 / RFU, TP53 / Fold change vs veh, TP53 / RFU, TNKS2 / Fold change vs veh, TNKS2 / RFU, ZFP14 / Fold change vs veh, ZFP14 / RFU, ACTR2 / Fold change vs veh, ACTR2 / RFU, PPP3R1 / Fold change vs veh, PPP3R1 / RFU, PIK3R1 / Fold change vs veh, PIK3R1 / RFU, HNRNPA1 / Fold change vs veh, HNRNPA1 / RFU, RNF170 / Fold change vs veh, RNF170 / RFU, ZNF28 / Fold change vs veh, ZNF28 / RFU, RNGTT / Fold change vs veh, RNGTT / RFU, OGT / Fold change vs veh, OGT / RFU, BRD1 / Fold change vs veh, BRD1 / RFU, MARS / Fold change vs veh, MARS / RFU, ZNF655 / Fold change vs veh, ZNF655 / RFU, FAHD1 / Fold change vs veh, FAHD1 / RFU, BDP1 / Fold change vs veh, BDP1 / RFU, LRRCC1 / Fold change vs veh, LRRCC1 / RFU, ARID1A / Fold change vs veh, ARID1A / RFU, ZNF146 / Fold change vs veh, ZNF146 / RFU, ZNF330 / Fold change vs veh, ZNF330 / RFU, GPN3 / Fold change vs veh, GPN3 / RFU, C9orf123 / Fold change vs veh, C9orf123 / RFU, N4BP2L2 / Fold change vs veh, N4BP2L2 / RFU, ARFIP1 / Fold change vs veh, ARFIP1 / RFU, FAM179B / Fold change vs veh, FAM179B / RFU, BCL10 / Fold change vs veh, BCL10 / RFU, UHRF1BP1L / Fold change vs veh, UHRF1BP1L / RFU, BET1 / Fold change vs veh, BET1 / RFU, CNOT2 / Fold change vs veh, CNOT2 / RFU, ZNF268 / Fold change vs veh, ZNF268 / Fold change vs veh, ZNF507 / RFU, DGCR2 / Fold change vs veh, DGCR2 / RFU, WDSUB1 / Fold change vs veh, WDSUB1 / Fold change vs veh, HSP90B1 /// MIR3652 / RFU, ADSS / Fold change vs veh, ADSS / RFU, GK / Fold change vs veh, GK / RFU, ZNF148 / Fold change vs veh, ZNF148 / RFU, TAF9 / Fold change vs veh, TAF9 / RFU, SLC1A5 / Fold change vs veh, SLC1A5 / RFU, SLMO2 / Fold change vs veh, SLMO2 / RFU, ABCC4 / Fold change vs veh, ABCC4 / RFU, LOC101060439 /// RAP1B / Fold change vs veh, LOC101060439 /// RAP1B / RFU, RFX7 / Fold change vs veh, RFX7 / RFU, GTPBP10 / Fold change vs veh, GTPBP10 / RFU, CNEP1R1 / Fold change vs veh, CNEP1R1 / RFU, BIVM-ERCC5 /// ERCC5 / Fold change vs veh, BIVM-ERCC5 /// ERCC5 / RFU, ILF3 / Fold change vs veh, ILF3 / RFU 11762660_at / Fold change /veh 11762660_at / RFU VCAN (11757783_s_at) / Fold change /veh VCAN (11757783_s_at) / RFU DDX43 (11728927_at) / Fold change /veh DDX43 (11728927_at) / RFU KRT8 (11758188_x_at) / Fold change /veh KRT8 (11758188_x_at) / RFU NKD1 (11759106_at) / Fold change /veh NKD1 (11759106_at) / RFU SRD5A1 (11742802_a_at) / Fold change /veh SRD5A1 (11742802_a_at) / RFU TPSAB1 /// TPSB2 (11721975_s_at) / Fold change /veh TPSAB1 /// TPSB2 (11721975_s_at) / RFU GSTM3 (11746129_a_at) / Fold change /veh GSTM3 (11746129_a_at) / RFU IL23R (11737362_x_at) / Fold change /veh IL23R (11737362_x_at) / RFU TMEM51 (11727254_a_at) / Fold change /veh TMEM51 (11727254_a_at) / RFU PIWIL2 (11732686_x_at) / Fold change /veh PIWIL2 (11732686_x_at) / RFU ORM1 (11744905_x_at) / Fold change /veh ORM1 (11744905_x_at) / RFU CCDC152 (11743942_at) / Fold change /veh CCDC152 (11743942_at) / RFU ECM1 (11717891_a_at) / Fold change /veh ECM1 (11717891_a_at) / RFU IL23R (11748794_a_at) / Fold change /veh IL23R (11748794_a_at) / RFU TNFAIP8L3 (11732012_x_at) / Fold change /veh TNFAIP8L3 (11732012_x_at) / RFU MBOAT4 (11741988_at) / Fold change /veh MBOAT4 (11741988_at) / RFU 11764193_at / Fold change /veh 11764193_at / RFU TMEM53 (11763286_at) / Fold change /veh TMEM53 (11763286_at) / RFU MAGEB2 (11727129_at) / Fold change /veh MAGEB2 (11727129_at) / RFU TMEM200A (11744735_a_at) / Fold change /veh TMEM200A (11744735_a_at) / RFU CCDC152 (11751479_a_at) / Fold change /veh CCDC152 (11751479_a_at) / RFU FAM211A (11726209_a_at) / Fold change /veh FAM211A (11726209_a_at) / RFU RGS16 (11746705_a_at) / Fold change /veh RGS16 (11746705_a_at) / RFU VCAN (11755009_s_at) / Fold change /veh VCAN (11755009_s_at) / RFU RHOB (11743442_s_at) / Fold change /veh RHOB (11743442_s_at) / RFU RGS16 (11720943_a_at) / Fold change /veh RGS16 (11720943_a_at) / RFU RGS16 (11720944_at) / Fold change /veh RGS16 (11720944_at) / RFU, VPS4B / Fold change vs veh, VPS4B / RFU, CREB1 / Fold change vs veh, CREB1 / RFU, DNAJC13 / Fold change vs veh, DNAJC13 / RFU, GNAQ / Fold change vs veh, GNAQ / RFU, CDK5R1 / Fold change vs veh, CDK5R1 / RFU, ZRANB3 / Fold change vs veh, ZRANB3 / RFU, CUL4A / Fold change vs veh, CUL4A / RFU, CCNY / Fold change vs veh, CCNY / RFU, UFL1 / Fold change vs veh, UFL1 / RFU, COG3 / Fold change vs veh, COG3 / RFU, DIAPH2 / Fold change vs veh, DIAPH2 / RFU, SKA2 / Fold change vs veh, SKA2 / RFU, AFF3 / Fold change vs veh, AFF3 / RFU, LMF1 / Fold change vs veh, LMF1 / RFU, IPO11 / Fold change vs veh, IPO11 / RFU, DFFB / Fold change vs veh, DFFB / RFU, FOXP1 / Fold change vs veh, FOXP1 / RFU, CARD8 / Fold change vs veh, CARD8 / RFU, STRN3 / Fold change vs veh, STRN3 / RFU, ADK / Fold change vs veh, ADK / RFU, RASSF2 / Fold change vs veh, RASSF2 / RFU, WIPF1 / Fold change vs veh, WIPF1 / RFU, LARP1B / Fold change vs veh, LARP1B / RFU, RASA1 / Fold change vs veh, RASA1 / RFU, RB1 / Fold change vs veh, RB1 / RFU, PPFIA1 / Fold change vs veh, PPFIA1 / RFU, MAT2A / Fold change vs veh, MAT2A / RFU, CCT5 / Fold change vs veh, CCT5 / RFU, WDR92 / Fold change vs veh, WDR92 / RFU, CUX1 / Fold change vs veh, CUX1 / RFU, TTC7A / Fold change vs veh, TTC7A / RFU, TMEM135 / Fold change vs veh, TMEM135 / RFU, DEPTOR / Fold change vs veh, DEPTOR / RFU, CPM / Fold change vs veh, CPM / RFU, DNAJB6 / Fold change vs veh, DNAJB6 / RFU, CACNA2D3 / Fold change vs veh, CACNA2D3 / RFU, DTX4 / Fold change vs veh, DTX4 / RFU, TFCP2 / Fold change vs veh, TFCP2 / RFU, GMCL1 /// GMCL1P1 / Fold change vs veh, GMCL1 /// GMCL1P1 / RFU, AEBP2 / Fold change vs veh, AEBP2 / RFU, SNHG1 /// SNORD22 /// SNORD25 /// SNORD26 /// SNORD27 /// SNORD28 /// SNORD29 /// SNORD31 / Fold change vs veh, SNHG1 /// SNORD22 /// SNORD25 /// SNORD26 /// SNORD27 /// SNORD28 /// SNORD29 /// SNORD31 / Fold change (Aza/veh), C12orf56 (ProbeSet 11735607_a_at) / Fold change (ACY-1035/veh), C12orf56 (ProbeSet 11735607_a_at) / Fold change (Aza/veh), FGFR1OP (ProbeSet 11751329_s_at) / Fold change (ACY-1035/veh), FGFR1OP (ProbeSet 11751329_s_at) / Fold change (Aza/veh), VPS36 (ProbeSet 11739960_a_at) / Fold change (ACY-1035/veh), VPS36 (ProbeSet 11739960_a_at) / RFU SYPL1 (11715823_x_at) / Fold change /veh SYPL1 (11715823_x_at) / RFU IGFBP7 (11715501_s_at) / Fold change /veh IGFBP7 (11715501_s_at) / RFU REEP3 (11722064_at) / Fold change /veh REEP3 (11722064_at) / RFU IGLL1 (11728026_x_at) / Fold change /veh IGLL1 (11728026_x_at): dose or concentration left out as unconfirmed
Details: MV-4-11 cells, 48 hours

With Nc1ncn([C@@H]2O[C@H](CO)[C@@H](O)[C@H]2O)c(=O)n1 [azacitidine] the “RFU RASL12 (11751679_a_at)” value was 15.38 RFU.
